The subject of data set [1] is dendritic cells. The experiment in a line: Cytotoxicity to dendritic cells (7AAD, FACS). The class given is cell-based, mouse. The protocol: The cytotoxicity of sodium glycocholate to the CHO cells, dendritic cells, T cells which were used in the above Examples was assayed. FACS analysis was performed after staining with 7AAD. First, sodium glycocholate was kept in vitro for 1 hour at 37° C., and then mixed with cells. CHO cells or dendritic cells were incubated for 14 hours at 37° C., and T cells which were mixed with 14 hour-incubated dendritic cells, were incubated for 4 days. Then, each cell was stained with 7AAD and cell analysis were carried out by using a flow cytometer.

Data set [2] deals with Balb/c mice. Kind of data set: Acute toxicity in mice, single administration into abdomen or tail vein. The class given is in vivo. Here is the method: Acute toxicity was measured by using five Balb/c mice of 6 weeks age per group, which were once administered with sodium glycocholate, at different sodium glycocholate concentrations, into the abdomen and tail vein. […] However, 250 mg/kg of sodium glycocholate at which the above-mentioned effects of sodium glycocholate, and the sodium glycocholate concentration of below 250 mg/kg, 100 % of the mice survived (FIGS. 32A-32B). Also, 100 % of the mice survived at the sodium glycocholate concentration of not exceeding 150 mg/kg in the experiment where sodium glycocholate of different concentrations was adiministered into tail vein of mice (FIG. 33).

In data set [3] the test system is ischemia-reperfusion renal injury. Kind of data set: Ischemia-reperfusion renal injury model, organ preservative solution additive. The class given is in vivo, Sprague-Dawley rat. To be noted: 0.5 mg/ml in HTK solution. Here is the method: The effect of sodium glycocholate to inflammatory response and renal function in an ischemia-reperfusion renal injury model, was evaluated. Five Sprague-Dawley (SD) male rats of 6 weeks age were used per each group, and foods and waters were not supplied to all the rats from 1 day before the experiment. The rats were anesthetized by the administration of 1 mg avertin (tribromoethanol/amyl hydrate)/100 g rat to the abdomen of the rats, and then laparotomized. All the blood flow to a left kidney was blocked by clamping the aorta and vena cava using vascular clamps. Before injecting the organ preservative solution, a vein of the left kidney was penetrated to minimize physical damage of the kidney due to the preservative solution pressure. Then, after histidine-tyroptophan-ketoglutarate (HTK) or a mixture solution of HTK and 0.5 mg/ml of sodium glycocholate was injected, at 4 ml/rat, into the vein, the damaged part of the vein was sutured by using 10-0 suture. After 30 min maintenance of the above state, the vascular clamps were removed and the laparotomized part was sutured. […] The concentration of IL-6 in the serum was measured by a enzyme-linked immunosorbent assay, and the concentrations of blood urea nitrogen (BUN), creatinine (Cre) and aspartate aminotransferase (AST) in the plasma were measured by an automated analyzer.

The subject of data set [4] is LPS-administered C57BL/6 mouse. Kind of data set: In vivo serum cytokines in LPS-administered mice (CBA kit). The protocol: As described in Example 7, 20 mg/kg of LPS was administered into the abdomen of mice and then 12.5 mg/kg of sodium glycocholate, and 20 mg/kg of LPS and 50 mg/kg of sodium glycocholate respectively was administered twice into the abdomen of mice, respectively. At the predetermined time, blood was collected from mouse tail and then serum was obtained by centrifugation (2400×g, 10 min). The change of cytokine expression in the serum was measured by using cytometric bead array (CBA) kit.

Data set [5] concerns NF-κB. Kind of data set: Inhibition of E. coli LPS-stimulated NF-κB activation (CD25 expression) in 3FP CHO cells. To be noted: for nuclear transcription factor inhibition: LPS-stimulated 3FP cells, CD25 expression; for inhibition effect for LPS-stimulated CD25 expression (NF-κB activation): live 7AAD(−) LPS-stimulated 3FP cells. The class given is cell-based, Chinese hamster. Here is the method:
In order to evaluate the inhibition efficacy for the activation of E. coli LPS-stimulated NF-κB in a CHO cell, % expression of CD 25 in the CHO cell was evaluated as the following method, and FACS analysis after staining with 7-AAD was carried out to evaluate the cytotoxicity. Bile salts were classified into 3 groups based on their solubility in different solvents, as follows:
The CHO cells expressing CD25 under the regulation of a nuclear factor (NF-κB) promoter, shown FIG. 2A, were used for this experiment. Toll-like receptor 2 (TLR2) and CD14 gene-transformed CHO cells (hereinafter referred to as “3FP cells”) were also used.
The next day, the cultured cells were treated with bile acid derivatives and LPS, and were incubated in a CO2 incubator for 15 hr at 37° C.
After stimulating the above incubated cells for 15 hr, the culture solution was centrifuged (1200 rpm, 5 min, 4° C.) to remove the culture supernatant. The precipitate was washed twice with 200 μl of FACS buffer (1×PBS containing 1% BSA and 1 mM EDTA). 20 μl of blocking solution (PBS containing 1:10 of normal mouse serum and 1:3 of anti-human CD14/CD32 (BD, 2.4G2) was added to each well and reacted on an ice for 30 min. A mixture solution of anti-human CD25-PE (1:16) and anti-human CD14-FITC (1:32) was added to the well and then reacted on the ice for 30 min. The reaction mixture was washed twice with 200 μl of FACS buffer, and then 200 μl of 7-AAD (1:20) was added to the reaction mixture. After the reaction mixture was reacted on the ice for 10 min, CD25 expression efficacy and cytotoxicity were analyzed by using a flow cytometer.
In order to analyze living cells, 7-AAD(−) cells were selected and an activation of nuclear transcription factor was confirmed by the increase of CD25 expression.

For data set [6], the system named is dendritic cells. Kind of data set: In vitro proinflammatory cytokine generation by E. coli LPS, dendritic cells (ELISA). The class given is cell-based, mouse. To be noted: LPS stimulation. Here is the method: In order to assay the effect of sodium glycocholate on the generation of proinflammatory cytokines induced by E. coli LPS, dendritic cells were prepared in the same way as Example 3, and macrophages were separated from the abdomen of C57BL/6 mouse. Thereafter, sodium glycocholate and LPS were reacted in vitro for 1 hour at 37° C., and then mixed with the cells. Each cell was stimulated for 14 hours at 37° C., and then supernatant fluid was separated.
The concentrations of TNF-α and interleukin-12p40 in the separated supernatant fluid was measured by an enzyme-linked immunoabsorbent assay (ELISA).
Each group was treated and assayed at least twice, and the results were statistically analyzed through t-test. The results were p<0.05 compared with the experimental groups treated by only LPS.

“Also recorded” adds a separate entry of the source. Some results are limits rather than exact numbers.

For `C[C@H](CCC(=O)NCC(=O)[O-])[C@H]1CC[C@H]2[C@@H]3[C@H](O)C[C@@H]4C[C@H](O)CC[C@]4(C)[C@H]3C[C@H](O)[C@]12C.[Na+]` [sodium glycocholate], the cytotoxicity result in data set [1] (1 mg/ml) is on record as “no significant cytotoxicity; also recorded: dose not have cytotoxicity”. Moreover, the “7AAD(+) increase compared with the negative control group” value in data set [1] (14 hours) is 2-4%. Also, the mice survived in data set [2] (abdominal administration, 250 mg/kg and below) was found to be 100%. For the same compound, the “concentration (dose) at which toxicity was shown” value in data set [2] (abdominal administration, single dose) is recorded as above 500 mg/kg. Besides, the adverse effect result in data set [2] (mouse test, dose of 250 mg/kg mouse) is on record as “no adverse effect”. In data set [2] (tail vein administration, not exceeding 150 mg/kg), this compound came in with a mice survived of 100%. Also, the ischemia-reperfusion renal injury entry in data set [3] is “inhibited”. The IL-10 in serum result in data set [4] is listed as “significantly increased; also recorded: increase”. Besides, in data set [4] (after 4, 8 and 12 hours), the IFN-g in serum entry was “decrease” and the IL-12p70 in serum result was “decrease”. In data set [4] (after 12, 24 and 48 hours), the IL-6 in serum result is recorded as “remarkably decreased; also recorded: decrease”, the MCP-1 in serum entry was “remarkably decreased; also recorded: decrease” and the TNF-α in serum entry is reported as “remarkably decreased; also recorded: decrease”. Also, the “nuclear transcription factor inhibition” value in data set [5] (0.5 mg/ml) was found to be 21.7±0.9%. Also, the “nuclear transcription factor inhibition” value in data set [5] (1 mg/ml) was 88.2±1.2%. For the same compound, the “inhibition effect for LPS-stimulated CD25 expression (NF-κB activation)” value in data set [5] is reported as “inhibited depending on the concentration”. The “inhibition effect for LPS-stimulated CD25 expression (NF-κB activation)” value in data set [5] (listed as sodium glycocholate hydrate) is given as “showed an inhibition effect”. Besides, in data set [6] (0.5 mg/ml), the “inhibition of generation of TNF-α” value came out at 70.2±2.3% and the “inhibition of generation of interleukine-12p40” value is given as 4.7±3.1%. Moreover, in data set [6] (1 mg/ml), the “inhibition of generation of TNF-α” value came out at 101.0±0.2% and the “inhibition of generation of interleukine-12p40” value was determined as 106.6±1.3%.
